Data as given in PubChem BioAssay (NCI).
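Following 48 hours of exposure in 96-well plates, responses at five concentrations were used to interpolate endpoints linearly. Abbreviation: GI50, concentration required for 50% inhibition of growth. At the TGI there is no net growth.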

What was measured:
Test in all cases: NCI tumour cell line growth inhibition, 48 h
SW-620 colon = test system: SW-620 colon
RXF 393 renal = test system: RXF 393 renal
KM12 colon = test system: KM12 colon
786-0 renal = test system: 786-0 renal
U251 CNS = test system: U251 CNS
HCT-116 colon = test system: HCT-116 colon
OVCAR-8 ovarian = test system: OVCAR-8 ovarian
SF-539 CNS = test system: SF-539 CNS
HL-60(TB) leukemia = test system: HL-60(TB) leukemia

Row | Compound | TGI (SW-620 colon) [µM] | TGI (RXF 393 renal) [µM] | TGI (KM12 colon) [µM] | TGI (786-0 renal) [µM] | TGI (U251 CNS) [µM] | TGI (HCT-116 colon) [µM] | TGI (OVCAR-8 ovarian) [µM] | TGI (SF-539 CNS) [µM] | TGI (HL-60(TB) leukemia) [µM] | GI50 (RXF 393 renal) [µM] | GI50 (KM12 colon) [µM] | GI50 (786-0 renal) [µM] | GI50 (SF-539 CNS) [µM]
1 | CCOC(=O)[C@H]1Nc2ccc(C)cc2C2c3ccccc3CC21 (stereo partly drawn) | > 100 | > 100 | > 100 | > 100 | > 100 | > 100 | > 100 | > 100 |  |  |  |  | 
2 | N#Cc1cnsc1 | > 100 | > 100 | > 100 | > 100 | > 100 | > 100 | > 100 | > 100 | > 100 |  |  |  | 
3 | O=C(/C=C/c1ccccc1Cl)c1ccccc1Cl | 26.2 |  | 29.3 | 28.8 | 30.8 | 28.5 | 33.6 | 36.7 | 47.1 |  |  |  | 
4 | COC(=O)CSc1n[nH]c(-c2ccc(O)c([N+](=O)[O-])c2)n1 | > 100 | > 100 |  | > 100 | > 100 | > 100 | > 100 | > 100 | > 100 |  |  |  | 
5 | CCN(CC)C(=O)C/C(C)=N/NC(=O)c1ccncc1 | > 100 | > 100 | > 100 | > 100 | > 100 | > 100 | > 100 | > 100 | > 100 |  |  |  | 
6 | COC(=O)C(=O)C(C(=O)C(=O)Nc1ccc(C)cc1C)c1nc2ccccc2[nH]c1=O (stereo not drawn) | > 100 | 60 | > 100 | > 100 | > 100 | > 100 | > 100 | 98.5 | > 100 |  |  |  | 
7 | CCCCn1c(-c2ccc(C(=O)O/N=C(\N)c3ccc(OC)cc3)cc2)nc(-c2ccccc2)c1-c1ccccc1 |  | 3.24 | > 100 | 1.91 |  |  |  | 3.24 |  | 1.64 | 2.91 | 0.538 | 1.67
8 | COc1ccc(C(=O)O)c(Cc2cccc3ccccc23)c1 | > 100 | > 100 | > 100 | > 100 | > 100 | > 100 | > 100 |  | > 100 |  |  |  | 
9 | CC(=O)SCCC1c2[nH]c3ccccc3c2CCN1O (stereo not drawn) | > 100 | > 100 | > 100 | > 100 | > 100 |  | > 100 | > 100 | > 100 |  |  |  | 
10 | O=C(CC(=O)N1N=C(c2ccccc2)C(N=Nc2ccc(Cl)cc2)C1=O)Nc1ccccc1Cl (stereo not drawn) | > 100 |  | > 100 | 26 | 71.1 | > 100 |  | 68.2 | > 100 |  |  |  | 
11 | Nc1c(-c2ccc(Br)cc2)[n+]([O-])c2ccccc2[n+]1[O-] | > 100 |  | > 100 | > 100 | > 100 | > 100 | > 100 | > 100 | > 100 |  |  |  | 
12 | NCCCNCCSSCCCCS(=O)O | > 100 | 79.8 |  | > 100 | > 100 | 70.2 | > 100 | > 100 | 40.7 |  |  |  | 
13 | Cc1cc(NS(=O)(=O)c2ccc(NC(=O)c3cccc4c(=O)c5ccccc5[nH]c34)cc2)no1 | > 100 |  | > 100 | 38.2 | > 100 | > 100 | 67.4 | > 100 | 74.6 |  |  |  | 
14 | N#CCCN(c1ccc(/C=C2\N=C(c3ccc(Cl)cc3)OC2=O)cc1)S(=O)(=O)c1ccccc1 | > 100 |  | > 100 | > 100 | > 100 | > 100 | > 100 | > 100 | > 100 |  |  |  | 
15 | COc1cc(Cc2cc(OC)c(OC)c(OC)c2)ccc1O | > 100 |  | > 100 | > 100 | > 100 | > 100 | > 100 | 56.2 | 6.55 |  |  |  | 
16 | Cc1ccc(N=NC(C(=O)c2ccccc2)C(=O)c2ccccc2)cc1 | > 100 |  | > 100 | 40 | > 100 | 65.6 | > 100 | 97.3 | 33.7 |  |  |  | 
17 | CC#CC(=O)Nc1ccccc1CC(c1c[nH]c2ccccc12)c1c[nH]c2ccccc12 | 36.2 |  | 53.6 | 43 |  |  | 76.7 | 37.2 | 32.1 |  |  |  | 
18 | CCOC(=O)NC(=O)c1cn(CCCOC(=O)NCCCCCCNC(=O)OCCCn2c(=O)c(C(=O)NC(=O)OCC)cn(C)c2=O)c(=O)n(C)c1=O | > 100 | 92.4 | > 100 | > 100 | > 100 | > 100 | > 100 |  | > 100 |  |  |  | 
19 | O=C1C2=C(CC3C(C2)C3(Br)Br)C(=O)C2=C1CC1C(C2)C1(Br)Br (stereo not drawn) |  | > 100 | > 100 | > 100 | > 100 | > 100 | > 100 | > 100 | > 100 |  |  |  | 
20 | CC(C)=CC(=O)N1CCN(C(=O)C=C(C)C)CC1 | > 100 |  | > 100 | > 100 | > 100 | > 100 | > 100 | > 100 | > 100 |  |  |  | 
21 | CC(=O)NC(CCCN)C(=O)NCc1ccccc1 (stereo not drawn) | > 100 | > 100 | > 100 | > 100 | > 100 | > 100 | > 100 | > 100 |  |  |  |  | 
